Values of other authors as cited in article PMC12032770 (Journal of Experimental & Clinical Cancer Research : CR, 2025).

System: αvβ3 and αvβ5 integrin receptors
Conditions: at low doses
Text: The αvβ3 and αvβ5 integrin receptors are strongly overexpressed on proangiogenic endothelial cells, including those that form tumor-associated blood vessels in GBM, and inhibitors targeting these integrins, such as the cyclic peptide cilengitide (CIL), act as anti-angiogenic agents.

cilengitide
effect on tumor vasculature: vascular normalization
